The results in this text go back to ChEMBL document CHEMBL5550170, “Discovery of novel benzimidazole derivatives as selective and reversible monoamine oxidase B inhibitors for Parkinson's disease treatment” (Eur J Med Chem, 2024).

Experiment [1] concerns the target T1, Amine oxidase [flavin-containing] B (Homo sapiens, UniProt P27338).
T1 sequence (P27338 whole entry): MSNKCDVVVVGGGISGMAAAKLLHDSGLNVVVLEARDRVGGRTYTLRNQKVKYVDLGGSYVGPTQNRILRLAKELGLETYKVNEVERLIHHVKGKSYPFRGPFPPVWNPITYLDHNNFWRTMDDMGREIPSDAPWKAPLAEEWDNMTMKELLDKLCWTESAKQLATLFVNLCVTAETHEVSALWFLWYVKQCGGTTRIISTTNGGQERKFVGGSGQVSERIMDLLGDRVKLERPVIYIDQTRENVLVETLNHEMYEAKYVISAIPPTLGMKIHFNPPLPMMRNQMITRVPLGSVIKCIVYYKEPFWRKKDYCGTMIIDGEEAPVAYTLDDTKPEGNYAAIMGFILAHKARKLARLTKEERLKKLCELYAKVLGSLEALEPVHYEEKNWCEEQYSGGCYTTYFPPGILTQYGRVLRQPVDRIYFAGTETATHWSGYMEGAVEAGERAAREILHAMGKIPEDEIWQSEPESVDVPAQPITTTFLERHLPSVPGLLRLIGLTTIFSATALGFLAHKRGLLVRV
The following applies: 0.5 h, read-out: INH.
Description: Inhibition of human MAO-B at 1 uM preincubated with compound for 10 mins followed by substrate addition and measured after 30 mins relative to control

Experiment [2] concerns the target T1, Amine oxidase [flavin-containing] B.
Description: Inhibition of human MAO-B preincubated with compound for 10 mins followed by substrate addition and measured after 30 mins
Experiment [3] addresses T2, Amine oxidase [flavin-containing] A (Homo sapiens, UniProt P21397).
T2 sequence (P21397 whole entry): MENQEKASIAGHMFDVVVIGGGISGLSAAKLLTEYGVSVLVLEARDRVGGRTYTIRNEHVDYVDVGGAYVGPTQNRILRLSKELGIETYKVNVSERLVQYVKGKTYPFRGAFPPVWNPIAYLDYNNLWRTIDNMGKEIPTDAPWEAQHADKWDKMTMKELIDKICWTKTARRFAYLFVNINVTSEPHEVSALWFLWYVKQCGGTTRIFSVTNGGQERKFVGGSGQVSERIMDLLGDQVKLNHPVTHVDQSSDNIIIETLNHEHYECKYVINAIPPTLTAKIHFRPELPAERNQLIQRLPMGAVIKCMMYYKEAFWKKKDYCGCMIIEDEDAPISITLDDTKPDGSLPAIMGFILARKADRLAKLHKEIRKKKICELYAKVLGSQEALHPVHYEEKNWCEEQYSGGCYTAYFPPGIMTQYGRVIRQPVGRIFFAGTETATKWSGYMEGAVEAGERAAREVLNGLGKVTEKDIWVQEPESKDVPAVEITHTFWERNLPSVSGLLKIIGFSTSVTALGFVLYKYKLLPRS
Description: Inhibition of human MAO-A preincubated with compound for 10 mins followed by substrate addition and measured after 30 mins

As to `COc1ccc2[nH]c(CC(N)=O)nc2c1`, the inhibition at 1 µM in experiment [1] came to 0.93%.

`Cc1ccc(COc2ccc3[nH]c(CC(N)=O)nc3c2)cc1`: in experiment [1], the inhibition at 1 µM stood at 8.29%.

On to `Cc1ccccc1NC(=O)c1ccc2[nH]c(CC(N)=O)nc2c1`, for which the inhibition at 1 µM in experiment [1] worked out at 31.8%.

As to `NC(=O)Cc1nc2cc(OCc3ccccc3)ccc2[nH]1`, the inhibition at 1 µM in experiment [1] is 14.3%.

What is called IC50 is the point on the concentration scale where inhibition reaches its midpoint. High values mean weaker potency, low ones greater potency. As to `NC(=O)Cc1nc2cc(OCc3ccc(C(F)(F)F)cc3)ccc2[nH]1`, the inhibition at 1 µM in experiment [1] was found to be 52.2%. In experiment [2], this compound showed an IC50 of 0.161 µM.

For `NC(=O)Cc1nc2cc(C(=O)Nc3cccc(F)c3)ccc2[nH]1`, the inhibition at 1 µM in experiment [1] came to 39.6%.

With `NC(=O)Cc1nc2cc(OCc3ccccc3Cl)ccc2[nH]1`, the inhibition at 1 µM in experiment [1] was determined as 8.15%.

In the case of `Cc1ccc(NC(=O)c2ccc3[nH]c(CC(N)=O)nc3c2)cc1C`, in experiment [1], the inhibition at 1 µM was found to be 31.3%.

Take `Cc1cccc(NC(=O)c2ccc3[nH]c(CC(N)=O)nc3c2)c1C`: in experiment [1], the inhibition at 1 µM is 27.2%.

Turning to `Cc1ccccc1COc1ccc2[nH]c(CC(N)=O)nc2c1`, the inhibition at 1 µM in experiment [1] was determined as 5.6%.

Turning to `NC(=O)Cc1nc2cc(OCc3cccc(F)c3)ccc2[nH]1`, the inhibition at 1 µM in experiment [1] was 67.5%. Besides, the values for the half-inhibitory concentration (IC50) in experiment [3] and in experiment [2] were 49.9 µM and 0.126 µM, respectively.

For `NC(=O)Cc1nc2cc(C(=O)Nc3ccccc3F)ccc2[nH]1`, the inhibition at 1 µM in experiment [1] was 44%.

For the compound `Cc1cccc(NC(=O)c2ccc3[nH]c(CC(N)=O)nc3c2)c1`, in experiment [1], the inhibition at 1 µM came to 33.7%.

In the case of `Cc1cccc(COc2ccc3[nH]c(CC(N)=O)nc3c2)c1`, in experiment [1], the inhibition at 1 µM was determined as 52.7%. For the same compound, in experiment [2], the half-maximal inhibitory concentration (IC50) is 0.614 µM.

As for `NC(=O)Cc1nc2cc(OCc3cccc(Cl)c3)ccc2[nH]1`, in experiment [1], the inhibition at 1 µM worked out at 67.3%. For the same compound, half-maximal inhibition in experiment [2] (IC50) was put at 0.292 µM.

In the case of `COc1cccc(COc2ccc3[nH]c(CC(N)=O)nc3c2)c1`, in experiment [1], the inhibition at 1 µM was 5.84%.

On to `NC(=O)Cc1nc2cc(C(=O)Nc3cccc(Cl)c3)ccc2[nH]1`, for which, in experiment [1], the inhibition at 1 µM came to 47.6%.

`NC(=O)Cc1nc2cc(OCc3ccccc3F)ccc2[nH]1`: in experiment [1], the inhibition at 1 µM was 10.1%.

`NC(=O)Cc1nc2cc(C(=O)Nc3ccc(F)cc3)ccc2[nH]1`: in experiment [1], the inhibition at 1 µM turned out to be 44.4%.

As for `NC(=O)Cc1nc2cc(C(=O)Nc3ccc(Cl)cc3)ccc2[nH]1`, the inhibition at 1 µM in experiment [1] was 38.4%.

With `Cc1nc2cc(OCc3cccc(F)c3)ccc2[nH]1`, the inhibition at 1 µM in experiment [1] was found to be 2.8%.

Regarding `COc1cccc(NC(=O)c2ccc3[nH]c(CC(N)=O)nc3c2)c1`, the inhibition at 1 µM in experiment [1] turned out to be 34.6%.

`COc1ccccc1NC(=O)c1ccc2[nH]c(CC(N)=O)nc2c1`: the inhibition at 1 µM in experiment [1] was 24.8%.

Turning to `Cc1ccc(NC(=O)c2ccc3[nH]c(CC(N)=O)nc3c2)cc1`, the inhibition at 1 µM in experiment [1] came to 29.6%.

For `NC(=O)Cc1nc2cc(C(=O)Nc3ccccc3)ccc2[nH]1`, in experiment [1], the inhibition at 1 µM was found to be 29.9%.

Take `NC(=O)Cc1nc2cc(OCc3ccc(Cl)cc3)ccc2[nH]1`: in experiment [1], the inhibition at 1 µM is 58.5%. The 50% inhibitory concentration (IC50) in experiment [3] was determined as 31.3 µM; in experiment [2] it was 0.443 µM.

For the compound `COc1ccc(NC(=O)c2ccc3[nH]c(CC(N)=O)nc3c2)cc1`, in experiment [1], the inhibition at 1 µM came out at 28.5%.

Regarding `C#CCN(C)Cc1ccccc1` [PARGYLINE], the inhibition at 1 µM in experiment [1] was found to be 62.9%.
